Reference: article PMC5451006, “Inhibition of insect olfactory behavior by an airborne antagonist of the insect odorant receptor co-receptor subunit” (PLoS ONE, 2017)

Columns and labels:
Format in all cases: cell-based
[1] = molecular target: T1, Cqui\Orco+Cqui\Or21 (Culex quinquefasciatus, UniProt Z9TAD8G4U6); test: two-electrode voltage clamp, Xenopus oocytes, concentration-inhibition; details: antagonist vs 3 μM OLC12 (Orco agonist), -70 mV, pH 7.4, 90 sec pre-application
T1 construct: heteromeric OR, cRNAs from pGEMHE co-expressed in Xenopus laevis oocytes; stoichiometry unknown; with Odorant receptor 21
T1 sequence (Z9TAD8G4U6 1-480): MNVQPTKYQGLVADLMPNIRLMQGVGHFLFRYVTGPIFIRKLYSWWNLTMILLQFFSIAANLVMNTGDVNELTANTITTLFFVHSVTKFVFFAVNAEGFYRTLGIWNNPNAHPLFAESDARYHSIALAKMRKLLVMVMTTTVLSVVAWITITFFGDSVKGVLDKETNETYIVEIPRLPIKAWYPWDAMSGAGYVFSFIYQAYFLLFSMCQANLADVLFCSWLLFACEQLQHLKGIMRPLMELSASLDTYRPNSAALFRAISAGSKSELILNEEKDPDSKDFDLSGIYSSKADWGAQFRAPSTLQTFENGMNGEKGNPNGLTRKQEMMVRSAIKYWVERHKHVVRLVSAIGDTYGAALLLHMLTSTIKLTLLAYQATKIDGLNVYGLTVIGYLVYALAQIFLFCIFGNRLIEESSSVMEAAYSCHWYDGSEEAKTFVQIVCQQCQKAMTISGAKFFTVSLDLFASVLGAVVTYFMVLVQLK

[2] = molecular target: T2, Dmel\Orco+Dmel\Or35a (Drosophila melanogaster, UniProt Q9VNB5); test: as above
T2 construct: heteromeric OR, cRNAs co-expressed in Xenopus laevis oocytes; stoichiometry unknown; with Odorant receptor 35a
T2 sequence (Q9VNB5 1-486): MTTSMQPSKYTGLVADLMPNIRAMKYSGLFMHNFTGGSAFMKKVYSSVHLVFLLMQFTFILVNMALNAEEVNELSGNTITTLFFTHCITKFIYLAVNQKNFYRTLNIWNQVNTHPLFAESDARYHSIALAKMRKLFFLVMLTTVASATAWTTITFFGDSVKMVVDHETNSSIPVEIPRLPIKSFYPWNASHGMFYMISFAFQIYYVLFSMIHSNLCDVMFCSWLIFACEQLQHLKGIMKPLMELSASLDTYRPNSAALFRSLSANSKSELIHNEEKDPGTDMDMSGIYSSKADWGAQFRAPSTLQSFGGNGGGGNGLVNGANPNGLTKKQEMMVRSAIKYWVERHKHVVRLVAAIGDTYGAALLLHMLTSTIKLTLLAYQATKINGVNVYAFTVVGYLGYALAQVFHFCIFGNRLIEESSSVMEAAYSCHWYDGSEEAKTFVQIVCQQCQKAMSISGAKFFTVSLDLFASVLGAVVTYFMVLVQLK
T2 sequence (Q9V3Q2 1-409 partner): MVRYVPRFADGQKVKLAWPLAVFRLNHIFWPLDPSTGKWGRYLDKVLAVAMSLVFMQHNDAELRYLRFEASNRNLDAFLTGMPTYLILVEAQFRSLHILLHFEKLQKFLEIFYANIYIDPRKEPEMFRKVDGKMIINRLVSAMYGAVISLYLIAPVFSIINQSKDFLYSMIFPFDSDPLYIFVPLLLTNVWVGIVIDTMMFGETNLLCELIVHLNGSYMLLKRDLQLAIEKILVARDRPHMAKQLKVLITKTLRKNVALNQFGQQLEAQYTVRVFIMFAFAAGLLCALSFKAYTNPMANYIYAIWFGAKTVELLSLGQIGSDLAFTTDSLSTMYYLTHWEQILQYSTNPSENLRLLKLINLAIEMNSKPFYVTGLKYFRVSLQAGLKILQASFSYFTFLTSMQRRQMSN

[3] = molecular target: T3, Agam\Orco+Agam\Or15 (Anopheles gambiae, UniProt Q7QCC7); test: two-electrode voltage clamp, Xenopus oocytes, single concentration; details: antagonist vs 18 μM acetophenone (EC50 concentration); allosteric via Orco; pH 7.4, -70 mV
T3 construct: heteromeric OR co-expressed in Xenopus laevis oocytes; stoichiometry unknown; with Odorant receptor 15
T3 sequence (Q7QCC7 1-478): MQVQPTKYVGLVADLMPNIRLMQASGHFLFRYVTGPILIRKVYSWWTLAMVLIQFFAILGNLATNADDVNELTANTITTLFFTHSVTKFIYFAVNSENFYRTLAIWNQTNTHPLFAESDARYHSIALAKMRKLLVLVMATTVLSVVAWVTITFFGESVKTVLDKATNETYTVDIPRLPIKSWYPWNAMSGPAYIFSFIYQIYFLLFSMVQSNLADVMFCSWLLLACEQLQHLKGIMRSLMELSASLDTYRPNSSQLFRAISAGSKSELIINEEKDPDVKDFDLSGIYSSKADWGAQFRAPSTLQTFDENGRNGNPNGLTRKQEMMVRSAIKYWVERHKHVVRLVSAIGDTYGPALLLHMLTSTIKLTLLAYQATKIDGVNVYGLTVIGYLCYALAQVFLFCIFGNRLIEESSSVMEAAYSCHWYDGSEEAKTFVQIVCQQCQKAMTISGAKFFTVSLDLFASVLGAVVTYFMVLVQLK

[4] = molecular target: T4, Agam\Orco (Anopheles gambiae, UniProt Q7QCC7); test: as above; details: antagonist vs 30 μM OLC12; homomeric Orco; pH 7.4, -70 mV
T4 construct: homomeric Orco channel, expressed alone in Xenopus laevis oocytes
T4 sequence (Q7QCC7 1-478): T3 sequence (Q7QCC7 1-478)
Description: two-electrode voltage clamp, Xenopus oocytes, single concentration on Agam\Orco | OX1w inhibition of homomeric Orco channels. Oocytes expressing Dmel\Orco, Cqui\Orco or Agam\Orco

[5] = molecular target: T5, Agam\Orco+Agam\Or27 (Anopheles gambiae, UniProt Q7QCC7); test: as above; details: antagonist vs 3 μM L-fenchone (EC50 concentration); allosteric via Orco; pH 7.4, -70 mV
T5 construct: heteromeric OR co-expressed in Xenopus laevis oocytes; stoichiometry unknown; with Odorant receptor 27
T5 sequence (Q7QCC7 1-478): T3 sequence (Q7QCC7 1-478)

[6] = molecular target: T6, Dmel\Orco (Drosophila melanogaster, UniProt Q9VNB5); test: as above; details: antagonist vs 30 μM OLC12; homomeric Orco; pH 7.4, -70 mV
T6 construct: homomeric Orco channel, expressed alone in Xenopus laevis oocytes
T6 sequence (Q9VNB5 1-486): T2 sequence (Q9VNB5 1-486)
Description: two-electrode voltage clamp, Xenopus oocytes, single concentration on Dmel\Orco | OX1w inhibition of homomeric Orco channels. Oocytes expressing Dmel\Orco, Cqui\Orco or Agam\Orco

[7] = molecular target: T7, Agam\Orco+Agam\Or28 (Anopheles gambiae, UniProt Q7QCC7); test: as above; details: antagonist vs 40 μM acetophenone (EC50 concentration); allosteric via Orco; pH 7.4, -70 mV
T7 construct: heteromeric OR co-expressed in Xenopus laevis oocytes; stoichiometry unknown; with Odorant receptor 28
T7 sequence (Q7QCC7 1-478): T3 sequence (Q7QCC7 1-478)

[8] = molecular target: T8, Agam\Orco+Agam\Or65 (Anopheles gambiae, UniProt Q7QCC7); test: as above; details: antagonist vs 100 nM eugenol (EC50 concentration); allosteric via Orco; pH 7.4, -70 mV
T8 construct: heteromeric OR co-expressed in Xenopus laevis oocytes; stoichiometry unknown; with Odorant receptor 65
T8 sequence (Q7QCC7 1-478): T3 sequence (Q7QCC7 1-478)

[9] = molecular target: T9, Agam\Orco+Agam\Or39 (Anopheles gambiae, UniProt Q7QCC7); test: as above; details: antagonist vs 10 μM 6-methyl-5-hepten-2-one (EC50 concentration); allosteric via Orco; pH 7.4, -70 mV
T9 construct: heteromeric OR co-expressed in Xenopus laevis oocytes; stoichiometry unknown; with Odorant receptor 39
T9 sequence (Q7QCC7 1-478): T3 sequence (Q7QCC7 1-478)

[10] = molecular target: T10, Cqui\Orco (Culex quinquefasciatus, UniProt Z9TAD8G4U6); test: as above; details: antagonist vs 30 μM OLC12; homomeric Orco; pH 7.4, -70 mV
T10 construct: homomeric Orco channel, expressed alone in Xenopus laevis oocytes
T10 sequence (Z9TAD8G4U6 1-480): T1 sequence (Z9TAD8G4U6 1-480)
Description: two-electrode voltage clamp, Xenopus oocytes, single concentration on Cqui\Orco | OX1w inhibition of homomeric Orco channels. Oocytes expressing Dmel\Orco, Cqui\Orco or Agam\Orco

[11] = molecular target: T11, Agam\Orco+Agam\Or31 (Anopheles gambiae, UniProt Q7QCC7); test: as above; details: antagonist vs 70 μM geranyl acetate (EC50 concentration); allosteric via Orco; pH 7.4, -70 mV
T11 construct: heteromeric OR co-expressed in Xenopus laevis oocytes; stoichiometry unknown; with Odorant receptor 31
T11 sequence (Q7QCC7 1-478): T3 sequence (Q7QCC7 1-478)

SMILES	IC50 [1] [µM]	IC50 [2] [µM]	% response remaining at 100 μM (normalized to sham) [3]	% response remaining at 100 μM [4]	% response remaining at 100 μM (normalized to sham) [5]	% response remaining at 100 μM [6]	% response remaining at 100 μM (normalized to sham) [7] [%]	% response remaining at 100 μM (normalized to sham) [8] [%]	% response remaining at 100 μM (normalized to sham) [9]	% response remaining at 100 μM [10]	% response remaining at 100 μM (normalized to sham) [11]
O=C(Nc1cc(F)cc(F)c1)c1cccs1 [OX1v, N-(3,5-difluorophenyl)-2-thiophenecarboxamide]	20 ± 3	32 ± 4	–	–	–	–	–	–	–	–	–
O=C(Nc1ccc(F)cc1)c1sccc1Cl [OX1w, 3-chloro-N-(4-fluorophenyl)-2-thiophenecarboxamide]	4 ± 1	57 ± 5	OX1w was able to inhibit odorant activation of each of the tested ORs	OX1w inhibition of homomeric Orco channels. Oocytes expressing Dmel\Orco, Cqui\Orco or Agam\Orco	OX1w was able to inhibit odorant activation of each of the tested ORs	OX1w inhibition of homomeric Orco channels. Oocytes expressing Dmel\Orco, Cqui\Orco or Agam\Orco	8 ± 1	78 ± 5	OX1w was able to inhibit odorant activation of each of the tested ORs	OX1w inhibition of homomeric Orco channels. Oocytes expressing Dmel\Orco, Cqui\Orco or Agam\Orco	OX1w was able to inhibit odorant activation of each of the tested ORs
O=C(Nc1ccc(SC(F)F)cc1)c1cccs1 [OX1x, N-(4-((difluoromethyl)thio)phenyl)-2-thiophenecarboxamide]	15 ± 1	32 ± 6	–	–	–	–	–	–	–	–	–
